A short description of this experiment: A549 cell cytotoxicity, dose response, cytotoxicity control, luminescence, dry powder, set 12 (AID 743472). The settings on record: A549 viability, CellTiter-Glo ATP luminescence, 72 h.

The source made the active and inactive calls.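 Rule for the calls: active = fitted curve drops past -35% activity change at a concentration no higher than twice the top valid tested dose; inconclusive = no clear call, values can overlap the other calls; inactive = the rest, including activity opposite to the expected direction.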

As to `O=C(c1cc(Cc2n[nH]c(=O)c3ccccc23)ccc1F)N1CCN(C(=O)C2CC2)CC1`, the activity change, negative = cytotoxicity (at 110 µM (top of the series)) was -14.2% (inactive). Consider `O=P1(NCCCl)OCCCN1CCCl` (stereo not given), for which the activity change, negative = cytotoxicity (at 50 µM (top of the series)) is 1.11% (inactive). Consider `COc1ccc(C2C(C#N)=C(N)Oc3cc(N)ccc32)cc1` (stereo not given), for which, for the setting “at 26 µM (top of the series)”, the activity change, negative = cytotoxicity is 0.547% (inactive). Same read-out and setting: the result for `CN(C(=O)CCCOc1ccc2[nH]c(=O)ccc2c1)C1CCCCC1` reads -2.41% (inactive). Consider `CCC(C)C(=O)OC1CC(C)C=C2C=CC(C)C(CCC(O)CC(O)CC(=O)O)C21` (stereo not given), for which, where the note is “at 100 µM (top of the series)”, the activity change, negative = cytotoxicity is -13.1% (inactive).
